Assay results published in US8143408B2, “N-(8-heteroaryltetrahydronaphtalene-2yl) or N-(5-heteroarylchromane-3-yl) carboxamide derivatives for the treatment of pain” (AstraZeneca AB, priority 2007, dated 2012).

Target: T1, Nav1.7 voltage-gated sodium channel (Homo sapiens, UniProt Q15858)
T1 construct: Gene(s) encoding the full-length protein of the voltage-gated sodium channel of interest are cloned and expressed; expressed in transfected cells
Assay: Whole-cell voltage clamp electrophysiology assay
Format: cell-based
Conditions: cells stably expressing the voltage-gated sodium channel of interest
Method in brief: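 Cells expressing full-length channel, exposed to drug by integrated pipetting on automated patch-clamp platforms or by microperfusion in conventional whole-cell patch clamp. Channels activated by a voltage protocol depolarising from a defined holding potential; buffers per platform manufacturer.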

T1 sequence (Q15858 whole entry): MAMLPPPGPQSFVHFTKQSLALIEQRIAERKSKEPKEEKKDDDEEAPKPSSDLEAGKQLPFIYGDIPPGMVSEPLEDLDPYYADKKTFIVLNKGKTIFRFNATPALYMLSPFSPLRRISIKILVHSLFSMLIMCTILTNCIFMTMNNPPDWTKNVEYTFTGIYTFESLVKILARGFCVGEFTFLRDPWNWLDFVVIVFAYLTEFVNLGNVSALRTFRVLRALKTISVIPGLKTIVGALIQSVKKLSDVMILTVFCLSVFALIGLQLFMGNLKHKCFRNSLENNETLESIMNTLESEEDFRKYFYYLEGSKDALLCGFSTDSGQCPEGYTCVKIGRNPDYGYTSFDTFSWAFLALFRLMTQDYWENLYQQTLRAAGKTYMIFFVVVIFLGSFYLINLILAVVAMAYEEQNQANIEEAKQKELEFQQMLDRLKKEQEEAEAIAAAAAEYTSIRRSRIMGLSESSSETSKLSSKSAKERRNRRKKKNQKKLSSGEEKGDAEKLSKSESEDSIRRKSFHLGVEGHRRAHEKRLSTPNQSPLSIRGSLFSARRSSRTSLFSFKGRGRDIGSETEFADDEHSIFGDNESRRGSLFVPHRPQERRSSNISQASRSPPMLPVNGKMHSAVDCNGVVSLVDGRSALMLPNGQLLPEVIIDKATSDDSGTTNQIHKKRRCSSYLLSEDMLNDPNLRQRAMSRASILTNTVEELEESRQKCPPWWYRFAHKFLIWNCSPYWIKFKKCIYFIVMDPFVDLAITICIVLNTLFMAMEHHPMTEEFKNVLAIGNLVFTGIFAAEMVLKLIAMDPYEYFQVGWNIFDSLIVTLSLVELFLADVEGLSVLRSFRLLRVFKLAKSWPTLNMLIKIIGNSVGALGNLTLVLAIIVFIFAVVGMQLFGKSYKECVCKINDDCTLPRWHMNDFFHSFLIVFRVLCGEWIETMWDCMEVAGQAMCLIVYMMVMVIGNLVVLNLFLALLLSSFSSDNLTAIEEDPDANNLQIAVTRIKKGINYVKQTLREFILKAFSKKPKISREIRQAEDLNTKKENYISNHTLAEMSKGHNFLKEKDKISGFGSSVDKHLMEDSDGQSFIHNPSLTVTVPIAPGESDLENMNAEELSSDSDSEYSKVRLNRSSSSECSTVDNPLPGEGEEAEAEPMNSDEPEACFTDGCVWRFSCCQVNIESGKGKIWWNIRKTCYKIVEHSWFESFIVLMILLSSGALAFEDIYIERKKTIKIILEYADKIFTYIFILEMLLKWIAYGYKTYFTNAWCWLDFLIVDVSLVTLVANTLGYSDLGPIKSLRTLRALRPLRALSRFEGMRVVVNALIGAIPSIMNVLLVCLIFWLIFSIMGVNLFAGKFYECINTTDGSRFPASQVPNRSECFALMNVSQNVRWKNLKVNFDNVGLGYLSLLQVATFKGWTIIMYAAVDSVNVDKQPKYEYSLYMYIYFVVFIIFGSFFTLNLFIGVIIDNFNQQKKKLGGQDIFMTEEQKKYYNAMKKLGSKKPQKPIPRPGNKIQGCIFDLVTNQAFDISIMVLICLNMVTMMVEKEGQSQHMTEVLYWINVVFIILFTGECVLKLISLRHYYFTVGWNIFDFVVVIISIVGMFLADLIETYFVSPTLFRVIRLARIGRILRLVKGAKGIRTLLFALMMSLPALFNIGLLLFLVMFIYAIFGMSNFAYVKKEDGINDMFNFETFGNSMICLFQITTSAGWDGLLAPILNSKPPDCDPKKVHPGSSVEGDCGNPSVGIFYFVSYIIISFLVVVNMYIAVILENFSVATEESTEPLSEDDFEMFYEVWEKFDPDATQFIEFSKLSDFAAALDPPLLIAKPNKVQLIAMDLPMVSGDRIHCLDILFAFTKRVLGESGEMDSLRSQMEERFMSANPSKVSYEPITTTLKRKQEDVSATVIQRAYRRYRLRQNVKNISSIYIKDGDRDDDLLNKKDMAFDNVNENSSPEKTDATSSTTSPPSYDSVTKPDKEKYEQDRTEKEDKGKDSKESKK

| SMILES | IC50 [nM] |
| --- | --- |
| Cc1ncc(-c2cccc3c2C[C@H](NC(=O)c2ccc(OC4CCC4)nc2)CO3)cn1 [Example 105, 6-(cyclobutyloxy)-N-[(3S)-5-(2-methylpyrimidin-5-yl)-3,4-dihydro-2H-chromen-3-yl]nicotinamide] | 63.1 |
| COc1ncc(-c2cccc3c2C[C@H](NC(=O)c2ccc(OC4CCC4)nc2)CO3)cn1 [Example 106, 6-(cyclobutyloxy)-N-[(3S)-5-(2-methoxypyrimidin-5-yl)-3,4-dihydro-2H-chromen-3-yl]nicotinamide] | 251 |
| COc1ncc(-c2cccc3c2C[C@H](NC(=O)c2ccnc(OC(C)C)c2)CO3)cn1 [Example 107, 2-isopropoxy-N-[(3S)-5-(2-methoxypyrimidin-5-yl)-3,4-dihydro-2H-chromen-3-yl]isonicotinamide] | 3980 |
| Cc1cnc(-c2cccc3c2C[C@H](NC(=O)c2ccc(OCCCF)nc2)CO3)c(C)n1 [Example 108, N-[(3S)-5-(3,5-dimethylpyrazin-2-yl)-3,4-dihydro-2H-chromen-3-yl]-6-(3-fluoropropoxy)nicotinamide] | 3980 |
| O=C(N[C@@H]1COc2cccc(-c3cnc(C4CC4)nc3)c2C1)c1ccc(OCC(F)(F)F)nc1 [Example 109, N-[(3S)-5-(2-cyclopropylpyrimidin-5-yl)-3,4-dihydro-2H-chromen-3-yl]-6-(2,2,2-trifluoroethoxy)nicotinamide] | 126 |
| CCCN(CCC)C(=O)c1ccc(C(=O)N[C@@H]2COc3cccc(-c4cnc(OC)nc4)c3C2)cn1 [Example 110, N^5-[(3S)-5-(2-methoxypyrimidin-5-yl)-3,4-dihydro-2H-chromen-3-yl]-N^2,N^2-dipropylpyridine-2,5-dicarboxamide] | 2000 |
| COc1ncc(-c2cccc3c2C[C@H](NC(=O)c2ccc(C(=O)NCCC(C)C)nc2)CO3)cn1 [Example 111, N^5-[(3S)-5-(2-methoxypyrimidin-5-yl)-3,4-dihydro-2H-chromen-3-yl]-N^2-(3-methylbutyl)pyridine-2,5-dicarboxamide] | 251 |
| COc1ncc(-c2cccc3c2C[C@H](NC(=O)c2ccc(C(=O)N(C)CC(C)C)nc2)CO3)cn1 [Example 112, N^2-isobutyl-N^5-[(3S)-5-(2-methoxypyrimidin-5-yl)-3,4-dihydro-2H-chromen-3-yl]-N^2-methylpyridine-2,5-dicarboxamide] | 1580 |
| O=C(N[C@@H]1COc2cccc(-c3ccncc3)c2C1)c1ccc(OCc2nccs2)nc1 [Example 114, N-[(3S)-5-pyridin-4-yl-3,4-dihydro-2H-chromen-3-yl]-6-(1,3-thiazol-2-ylmethoxy)nicotinamide] | 1000 |
| Cc1cc(COc2ccc(C(=O)N[C@@H]3COc4cccc(-c5ccncc5)c4C3)cn2)no1 [Example 115, 6-[(5-methylisoxazol-3-yl)methoxy]-N-[(3S)-5-pyridin-4-yl-3,4-dihydro-2H-chromen-3-yl]nicotinamide] | 316 |
| Cn1ccnc1COc1ccc(C(=O)N[C@@H]2COc3cccc(-c4ccncc4)c3C2)cn1 [Example 116, 6-[(1-methyl-1H-imidazol-2-yl)methoxy]-N-[(3S)-5-pyridin-4-yl-3,4-dihydro-2H-chromen-3-yl]nicotinamide] | 2000 |
| O=C(N[C@@H]1COc2cccc(-c3ccncc3)c2C1)c1ccc(S(=O)(=O)C2CCCC2)nc1 [Example 117, 6-(cyclopentylsulfonyl)-N-[(3S)-5-pyridin-4-yl-3,4-dihydro-2H-chromen-3-yl]nicotinamide] | 501 |
| O=C(N[C@@H]1COc2cccc(-c3ccncc3)c2C1)c1ccc(OCc2ccccn2)nc1 [Example 118, N-[(3S)-5-pyridin-4-yl-3,4-dihydro-2H-chromen-3-yl]-6-(pyridin-2-ylmethoxy)nicotinamide] | 1580 |
| O=C(N[C@@H]1COc2cccc(-c3ccncc3)c2C1)c1ccc(OCc2cccnc2)nc1 [Example 119, N-[(3S)-5-pyridin-4-yl-3,4-dihydro-2H-chromen-3-yl]-6-(pyridin-3-ylmethoxy)nicotinamide] | 2000 |
| O=C(N[C@@H]1COc2cccc(-c3ccncc3)c2C1)c1ccc(OCc2cnccn2)nc1 [Example 120, 6-(pyrazin-2-ylmethoxy)-N-[(3S)-5-pyridin-4-yl-3,4-dihydro-2H-chromen-3-yl]nicotinamide] | 1580 |
| COc1ncc(-c2cccc3c2C[C@H](NC(=O)c2ccc(OCC4CCCO4)nc2)CO3)cn1 (stereo partly drawn) [Example 121, N-[(3S)-5-(2-methoxypyrimidin-5-yl)-3,4-dihydro-2H-chromen-3-yl]-6-(tetrahydrofuran-2-ylmethoxy)nicotinamide] | 5010 |
| COc1ncc(-c2cccc3c2C[C@H](NC(=O)c2ccc(OCC4CCCCO4)nc2)CO3)cn1 (stereo partly drawn) [Example 122, N-[(3S)-5-(2-methoxypyrimidin-5-yl)-3,4-dihydro-2H-chromen-3-yl]-6-(tetrahydro-2H-pyran-2-ylmethoxy)nicotinamide] | 2000 |
| COc1ncc(-c2cccc3c2C[C@H](NC(=O)c2ccc(OCC4CCOCC4)nc2)CO3)cn1 [Example 123, N-[(3S)-5-(2-methoxypyrimidin-5-yl)-3,4-dihydro-2H-chromen-3-yl]-6-(tetrahydro-2H-pyran-4-ylmethoxy)nicotinamide] | 1000 |
| CC#CCOc1ccc(C(=O)N[C@@H]2COc3cccc(-c4cnc(OC)nc4)c3C2)cn1 [Example 124, 6-(but-2-yn-1-yloxy)-N-[(3S)-5-(2-methoxypyrimidin-5-yl)-3,4-dihydro-2H-chromen-3-yl]nicotinamide] | 158 |
| COc1ncc(-c2cccc3c2C[C@H](NC(=O)c2ccc(C(=O)NCCC(F)(F)F)nc2)CO3)cn1 [Example 125, N^5-[(3S)-5-(2-methoxypyrimidin-5-yl)-3,4-dihydro-2H-chromen-3-yl]-N^2-(3,3,3-trifluoropropyl)pyridine-2,5-dicarboxamide] | 316 |
| COCCOc1ccc(C(=O)N[C@@H]2COc3cccc(-c4ccncc4)c3C2)cn1 [Example 126, 6-(2-methoxyethoxy)-N-[(3S)-5-pyridin-4-yl-3,4-dihydro-2H-chromen-3-yl]nicotinamide] | 2000 |
| O=C(N[C@@H]1COc2cccc(-c3ccncc3)c2C1)c1ccc(OCC2CCO2)nc1 (stereo partly drawn) [Example 127, 6-(oxetan-2-ylmethoxy)-N-[(3S)-5-pyridin-4-yl-3,4-dihydro-2H-chromen-3-yl]nicotinamide] | 3160 |
| CO[C@H](C)COc1ccc(C(=O)N[C@@H]2COc3cccc(-c4ccncc4)c3C2)cn1 [Example 128, 6-{[(2R)-2-methoxypropyl]oxy}-N-[(3S)-5-pyridin-4-yl-3,4-dihydro-2H-chromen-3-yl]nicotinamide] | 1000 |
| O=C(N[C@@H]1COc2cccc(-c3ccncc3)c2C1)c1ccc(OC2CCOCC2)nc1 [Example 129, N-[(3S)-5-pyridin-4-yl-3,4-dihydro-2H-chromen-3-yl]-6-(tetrahydro-2H-pyran-4-yloxy)nicotinamide] | 200 |
| O=C(N[C@@H]1COc2cccc(-c3ccncc3)c2C1)c1ccc(C(=O)NC2CCOCC2)nc1 [Example 130, N^5-[(3S)-5-pyridin-4-yl-3,4-dihydro-2H-chromen-3-yl]-N^2-(tetrahydro-2H-pyran-4-yl)pyridine-2,5-dicarboxamide] | 3980 |
| O=C(N[C@@H]1COc2cccc(-c3ccncc3)c2C1)c1ccc(C(=O)NCC(F)(F)F)nc1 [Example 131, N^5-[(3S)-5-pyridin-4-yl-3,4-dihydro-2H-chromen-3-yl]-N^2-(2,2,2-trifluoroethyl)pyridine-2,5-dicarboxamide] | 631 |
